From ChEMBL document CHEMBL1130577, “Synthesis of irreversible HIV-1 protease inhibitors containing sulfonamide and sulfone as amide bond isosteres” (Bioorg Med Chem Lett, 1997)

Tests used:
[1] = system: H9; assay: Inhibitory activity was evaluated against HIV-1 in H9 and Sup T1 cell lines as assessed by syncytium formation and reverse transcriptase assay; format: functional, cell-based; conditions: Homo sapiens
[2] = target: Human immunodeficiency virus type 1 protease (Human immunodeficiency virus 1, UniProt Q72874); assay: Compound was tested for its inhibitory activity against HIV-1 protease
[3] = target: Human immunodeficiency virus type 1 protease (Human immunodeficiency virus 1) (UniProt Q72874); assay: Bimolecular rate constant for the formation of HIV-1 protease complex was evaluated
[4] = system: H9; assay: Inhibitory activity was evaluated against HIV-1 protease by using reverse transcription assay; format: functional, cell-based; conditions: Homo sapiens
[5] = target: Cathepsin D (Homo sapiens, UniProt P07339); assay: Inhibition against human cathepsin D was determined
[6] = target: T1, Renin (Homo sapiens, UniProt P00797); assay: Inhibition against human renin was determined; IA means inactive
T1 sequence (P00797 whole entry): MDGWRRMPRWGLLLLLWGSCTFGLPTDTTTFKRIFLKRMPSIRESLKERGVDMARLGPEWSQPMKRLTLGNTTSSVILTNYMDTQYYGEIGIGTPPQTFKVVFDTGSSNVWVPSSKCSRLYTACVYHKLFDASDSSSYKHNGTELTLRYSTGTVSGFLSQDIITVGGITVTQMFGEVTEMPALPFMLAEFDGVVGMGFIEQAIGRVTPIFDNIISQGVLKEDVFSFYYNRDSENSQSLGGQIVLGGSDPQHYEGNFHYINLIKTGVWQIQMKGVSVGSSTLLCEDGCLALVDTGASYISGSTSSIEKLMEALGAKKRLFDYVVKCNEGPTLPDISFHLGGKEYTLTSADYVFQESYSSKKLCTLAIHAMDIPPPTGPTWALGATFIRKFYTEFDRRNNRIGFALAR

Cathepsin D, sequence (P07339 65-162 limits assumed): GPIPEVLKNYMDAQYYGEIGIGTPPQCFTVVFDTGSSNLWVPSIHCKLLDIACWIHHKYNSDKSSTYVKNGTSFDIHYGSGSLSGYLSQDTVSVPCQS
Cathepsin D, sequence (P07339 169-412 limits assumed): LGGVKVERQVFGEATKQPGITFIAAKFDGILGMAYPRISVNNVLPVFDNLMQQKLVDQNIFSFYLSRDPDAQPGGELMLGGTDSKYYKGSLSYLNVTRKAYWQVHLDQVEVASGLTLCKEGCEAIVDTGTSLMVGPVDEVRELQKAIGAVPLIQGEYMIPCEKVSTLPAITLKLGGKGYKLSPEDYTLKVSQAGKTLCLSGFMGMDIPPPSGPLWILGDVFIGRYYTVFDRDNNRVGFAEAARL

Row | Compound | IC50 [1] [nM] | Ki [2] [nM] | K inact/Ki [3] [M⁻¹ s⁻¹] | IC50 [4] [nM] | IC50 [5] [nM] | IC50 [6]
1 | CCN(CC(C)C)S(=O)(=O)CC[C@@H]1O[C@@H]1[C@H](Cc1ccccc1)NC(=O)[C@@H](NC(=O)OCc1ccccc1)C(C)(C)S(C)(=O)=O | 10.7 | 2.9 | 1.15e+06 |  |  | 
2 | CC(C)(C)NS(=O)(=O)CC[C@@H]1O[C@@H]1[C@H](Cc1ccccc1)NC(=O)[C@@H](NC(=O)OCc1ccccc1)C(C)(C)S(C)(=O)=O | 20.2 | 0.7 | 1.33e+06 |  |  | 
3 | CCN(c1ccccc1)S(=O)(=O)CC[C@@H]1O[C@@H]1[C@H](Cc1ccccc1)NC(=O)[C@@H](NC(=O)OCc1ccccc1)C(C)(C)S(C)(=O)=O | 13.8 | 4.6 | 717000 |  |  | 
4 | CC(C)(C)NS(=O)(=O)CC[C@@H]1O[C@@H]1[C@H](Cc1ccccc1)NC(=O)C(CC(N)=O)NC(=O)c1ccc2ccccc2n1 (stereo partly specified) | 30 | 12.6 | 250000 |  |  | 
5 | CCN(C(C)C)S(=O)(=O)CC[C@@H]1O[C@@H]1[C@H](Cc1ccccc1)NC(=O)[C@@H](NC(=O)c1cccs1)C(C)(C)S(C)(=O)=O | 18.2 | 3.1 | 1.05e+06 |  |  | 
6 | CC(C)C(NC(=O)C[C@@H]1O[C@@H]1[C@H](Cc1ccccc1)NC(=O)[C@H](CC(N)=O)NC(=O)c1ccc2ccccc2n1)C(C)C | 20 |  | 3.33e+06 |  |  | 
7 | CC(C)N(C(=O)c1ccccc1)S(=O)(=O)CC[C@@H]1O[C@@H]1[C@H](Cc1ccccc1)NC(=O)[C@@H](NC(=O)OCc1ccccc1)C(C)(C)S(C)(=O)=O | 15 | 3.6 | 917000 |  |  | 
8 | CCN(C(C)C)S(=O)(=O)CC[C@@H]1O[C@@H]1[C@H](Cc1ccccc1)NC(=O)[C@@H](NC(=O)OCc1ccccc1)C(C)(C)S(C)(=O)=O |  | 0.8 | 1.63e+06 | 10.9 |  | 
9 | CCN(C(C)C)S(=O)(=O)CC[C@@H]1O[C@@H]1[C@H](Cc1ccccc1)NC(=O)[C@@H](NC(=O)c1ccc2ccccc2n1)C(C)(C)S(C)(=O)=O | 6.6 | 7 | 483000 |  | 8200 | Not Active
10 | CCN(c1ccccc1)S(=O)(=O)CC[C@@H]1O[C@@H]1[C@H](Cc1ccccc1)NC(=O)[C@@H](NC(=O)c1ccc2ccccc2n1)C(C)(C)S(C)(=O)=O | 10.7 | 5 | 650000 |  |  | 
